Where a SMILES comes first, the peptide text is derived from it. Bridges are numbered along the chain shown (N, C = ends). [ ]: non-standard residue; d: D form. The star is where a group is joined. NH(2-(3-pyridyl)ethyl) = c1cncc(CCN*)c1; 2Nal = N[C@@H](Cc1ccc2ccccc2c1)C(=O)O; AEF = NCCOc1ccc(C[C@H](N)C(=O)O)cc1; 3Pal = N[C@@H](Cc1cccnc1)C(=O)O; β3hE = N[C@@H](CCC(=O)O)CC(=O)O; αMeL = CC(C)C[C@](C)(N)C(=O)O; Dab = NCC[C@H](N)C(=O)O
Biological target: T1, human IL-23R (Homo sapiens, UniProt Q5VWK5)
T1 sequence (Q5VWK5 22-629): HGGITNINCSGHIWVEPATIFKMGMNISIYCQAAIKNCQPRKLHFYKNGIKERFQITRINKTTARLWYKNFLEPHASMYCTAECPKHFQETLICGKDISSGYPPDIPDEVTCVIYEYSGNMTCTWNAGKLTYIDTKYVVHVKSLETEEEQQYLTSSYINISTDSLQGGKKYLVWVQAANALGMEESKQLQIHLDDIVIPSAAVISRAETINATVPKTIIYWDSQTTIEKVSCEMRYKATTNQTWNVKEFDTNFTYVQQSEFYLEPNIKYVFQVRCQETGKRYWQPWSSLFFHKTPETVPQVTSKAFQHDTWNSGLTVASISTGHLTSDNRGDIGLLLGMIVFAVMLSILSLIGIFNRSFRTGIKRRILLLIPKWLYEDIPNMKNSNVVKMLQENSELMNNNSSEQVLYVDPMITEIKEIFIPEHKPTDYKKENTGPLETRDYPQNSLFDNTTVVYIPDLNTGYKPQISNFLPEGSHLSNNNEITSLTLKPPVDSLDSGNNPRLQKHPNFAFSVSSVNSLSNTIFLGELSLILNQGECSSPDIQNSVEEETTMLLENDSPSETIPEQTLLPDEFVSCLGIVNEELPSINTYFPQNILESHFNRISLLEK
Assay: biochemical
Conditions: for Emax: read-out: % displacement (hIL-23R NIuc)
Outline: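 Membranes from HEK293 cells stably expressing Nluc-tagged human IL-23R were incubated 2 h at room temperature with test compound and a fluorophore-labelled tracer. After substrate addition, loss of BRET (TAMRA over luciferase emission) reported tracer displacement. A 4PL fit gave IC50 values.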

Row | SMILES | IC50 [nM] | Emax [%] | % displacement (hIL-23R NIuc) [%]
1 | COc1ccc(C[C@@H]2NC(=O)[C@@H]3CCC(=O)N[C@@H](CCCCNC(=O)CC[C@@H](C(=O)N[C@@H](CCCCNC(=O)CCc4cccnc4)C(N)=O)NC(=O)[C@](C)(CC(C)C)NC(=O)[C@H](Cc4ccc5ccccc5c4)NC2=O)C(=O)N[C@@H]([C@@H](C)O)C(=O)N[C@@H](C(C)C)C(=O)N[C@@H](Cc2c[nH]c4ccccc24)C(=O)N[C@@H](CCC(N)=O)C(=O)N3)cc1 [Compound 52, K(1c)(6c)^†TVWQE(6c)[Y(Me)][2-Nal][2-Me-Leu]E(1c)[K(3-pyridylpropionyl)]-[NH2]] | 120 | 101 | –
2 | COc1ccc(C[C@@H]2NC(=O)[C@@H]3CCC(=O)N[C@@H](CCCCNC(=O)CC[C@@H](C(=O)N[C@@H](CCCCNC(=O)c4ccncc4)C(N)=O)NC(=O)[C@](C)(CC(C)C)NC(=O)[C@H](Cc4ccc5ccccc5c4)NC2=O)C(=O)N[C@@H]([C@@H](C)O)C(=O)N[C@@H](C(C)C)C(=O)N[C@@H](Cc2c[nH]c4ccccc24)C(=O)N[C@@H](CCC(N)=O)C(=O)N3)cc1 [Compound 53, K(1c)(6c)^†TVWQE(6c)[Y(Me)][2-Nal][2-Me-Leu]E(1c)[K(isonicotinyl)]-[NH2]] | 420 | 95 | –
3 | COc1ccc(C[C@@H]2NC(=O)[C@@H]3CCC(=O)N[C@@H](CCCCNC(=O)CC[C@@H](C(=O)N[C@@H](CCCCNC(=O)CCc4ccncc4)C(N)=O)NC(=O)[C@](C)(CC(C)C)NC(=O)[C@H](Cc4ccc5ccccc5c4)NC2=O)C(=O)N[C@@H]([C@@H](C)O)C(=O)N[C@@H](C(C)C)C(=O)N[C@@H](Cc2c[nH]c4ccccc24)C(=O)N[C@@H](CCC(N)=O)C(=O)N3)cc1 [Compound 55, K(1c)(6c)^†TVWQE(6c)[Y(Me)][2-Nal][2-Me-Leu]E(1c)[K(4-pyridylpropionyl)]-[NH2]] | 140 | 100 | –
4 | COc1ccc(C[C@@H]2NC(=O)[C@@H]3CCC(=O)N[C@@H](CCCCNC(=O)CC[C@@H](C(=O)N[C@@H](CCCCNC(=O)Cc4ncc[nH]4)C(N)=O)NC(=O)[C@](C)(CC(C)C)NC(=O)[C@H](Cc4ccc5ccccc5c4)NC2=O)C(=O)N[C@@H]([C@@H](C)O)C(=O)N[C@@H](C(C)C)C(=O)N[C@@H](Cc2c[nH]c4ccccc24)C(=O)N[C@@H](CCC(N)=O)C(=O)N3)cc1 [Compound 58, K(1c)(6c)^†TVWQE(6c)[Y(Me)][2-Nal][2-Me-Leu]E(1c)[K(Imidazoleacetyl)]-[NH2]] | 550 | – | –
5 | COc1ccc(C[C@@H]2NC(=O)[C@@H]3CCC(=O)N[C@@H](CCCCNC(=O)CC[C@@H](C(=O)N[C@@H](CCCCNC(=O)CCc4ncc[nH]4)C(N)=O)NC(=O)[C@](C)(CC(C)C)NC(=O)[C@H](Cc4ccc5ccccc5c4)NC2=O)C(=O)N[C@@H]([C@@H](C)O)C(=O)N[C@@H](C(C)C)C(=O)N[C@@H](Cc2c[nH]c4ccccc24)C(=O)N[C@@H](CCC(N)=O)C(=O)N3)cc1 [Compound 59, K(1c)(6c)^†TVWQE(6c)[Y(Me)][2-Nal][2-Me-Leu]E(1c)[K(Imidazolepropanoyl)]-[NH2]] | 330 | – | –
6 | CC[C@H](C)[C@@H]1NC(=O)[C@@H]2CCCCNC(=O)CC[C@@H](CC(=O)N[C@@H](Cc3cccnc3)C(=O)NC)NC(=O)[C@](C)(CC(C)C)NC(=O)[C@H](Cc3ccc4ccccc4c3)NC(=O)[C@H](Cc3ccc(OCCN)cc3)NC(=O)[C@H](CCC(=O)N2)NC(=O)[C@H](CCC(N)=O)NC(=O)[C@H](Cc2c[nH]c3ccccc23)NC(=O)[C@H](C(C)C)NC1=O [Compound 61, K(1c)(6c)^†IVWQE(6c)[Y(2-aminoethoxy)][2-Nal][2-Me-Leu][beta-hGlu](cyclo1)[3-(3-Pyridyl)-Ala]-[NHMe]] (KIVWQE[AEF][2Nal][αMeL][β3hE][3Pal]-NHMe; lactam 1-10, N-6) | 11 | 99 | –
7 | CC[C@H](C)[C@@H]1NC(=O)[C@@H]2CCCCNC(=O)CC[C@@H](C(=O)N[C@@H](CCN)C(=O)NCCCc3cccnc3)NC(=O)[C@](C)(CC(C)C)NC(=O)[C@H](Cc3ccc4ccccc4c3)NC(=O)[C@H](Cc3ccc(OCCN)cc3)NC(=O)[C@H](CCC(=O)N2)NC(=O)[C@H](CCC(N)=O)NC(=O)[C@H](Cc2c[nH]c3ccccc23)NC(=O)[C@H](C(C)C)NC1=O [Compound 67, K(1c)(6c)^†IVWQE(6c)[Y(2-aminoethoxy)][2-Nal][2-Me-Leu]E(1c)[Dab]-[NH-3-(pyridin-3-yl)propyl]] | 2.6 | 102 | –

Continued by falling IC50, values first:

Row | IC50 [nM] | Emax [%] | % displacement (hIL-23R NIuc) [%] | SMILES
8 | 790 | 93 | – | COc1ccc(C[C@@H]2NC(=O)[C@@H]3CCC(=O)N[C@@H](CCCCNC(=O)CC[C@@H](C(=O)N[C@@H](CCCCNC(=O)Cc4ccnc(F)c4)C(N)=O)NC(=O)[C@](C)(CC(C)C)NC(=O)[C@H](Cc4ccc5ccccc5c4)NC2=O)C(=O)N[C@@H]([C@@H](C)O)C(=O)N[C@@H](C(C)C)C(=O)N[C@@H](Cc2c[nH]c4ccccc24)C(=O)N[C@@H](CCC(N)=O)C(=O)N3)cc1 [Compound 57, K(1c)(6c)^†TVWQE(6c)[Y(Me)][2-Nal][2-Me-Leu]E(1c)[K(4-pyridyl-3-fluoroacetyl)]-[NH2]]
9 | 290 | 105 | – | COc1ccc(C[C@@H]2NC(=O)[C@@H]3CCC(=O)N[C@@H](CCCCNC(=O)CC[C@@H](C(=O)N[C@@H](CCCCNC(=O)Cc4ccncc4)C(N)=O)NC(=O)[C@](C)(CC(C)C)NC(=O)[C@H](Cc4ccc5ccccc5c4)NC2=O)C(=O)N[C@@H]([C@@H](C)O)C(=O)N[C@@H](C(C)C)C(=O)N[C@@H](Cc2c[nH]c4ccccc24)C(=O)N[C@@H](CCC(N)=O)C(=O)N3)cc1 [Compound 54, K(1c)(6c)^†TVWQE(6c)[Y(Me)][2-Nal][2-Me-Leu]E(1c)[K(4-pyridylacetyl)]-[NH2]]
10 | 210 | 98 | – | COc1ccc(C[C@@H]2NC(=O)[C@@H]3CCC(=O)N[C@@H](CCCCNC(=O)CC[C@@H](C(=O)N[C@@H](CCCCNC(=O)c4cncnc4)C(N)=O)NC(=O)[C@](C)(CC(C)C)NC(=O)[C@H](Cc4ccc5ccccc5c4)NC2=O)C(=O)N[C@@H]([C@@H](C)O)C(=O)N[C@@H](C(C)C)C(=O)N[C@@H](Cc2c[nH]c4ccccc24)C(=O)N[C@@H](CCC(N)=O)C(=O)N3)cc1 [Compound 56, K(1c)(6c)^†TVWQE(6c)[Y(Me)][2-Nal][2-Me-Leu]E(1c)[K(3,5-pyrimidine)]-[NH2]]
11 | 150 | – | 98 | CC[C@H](C)[C@@H]1NC(=O)[C@@H]2CCCCNC(=O)CC[C@@H](C(=O)N3CCC[C@H]3C(=O)N[C@@H](Cc3cccnc3)C(=O)NC)NC(=O)[C@](C)(CC(C)C)NC(=O)[C@H](Cc3ccc4ccccc4c3)NC(=O)[C@H](Cc3ccc(OCCN)cc3)NC(=O)[C@H](CCC(=O)N2)NC(=O)[C@H](CCC(N)=O)NC(=O)[C@H](Cc2c[nH]c3ccccc23)NC(=O)[C@H](C(C)C)NC1=O [Compound 63, K(1c)(6c)^†IVWQE(6c)[Y(2-aminoethoxy)][2-Nal][2-Me-Leu]E(1c)P[3-(3-Pyridyl)-Ala]-[NHMe]] (KIVWQE[AEF][2Nal][αMeL]EP[3Pal]-NHMe; lactam 1-10, N-6)
12 | 140 | 99 | – | CC[C@H](C)[C@@H]1NC(=O)[C@@H]2CCCCNC(=O)CC[C@@H](CC(=O)NCCc3cccnc3)NC(=O)[C@](C)(CC(C)C)NC(=O)[C@H](Cc3ccc4ccccc4c3)NC(=O)[C@H](Cc3ccc(OCCN)cc3)NC(=O)[C@H](CCC(=O)N2)NC(=O)[C@H](CCC(N)=O)NC(=O)[C@H](Cc2c[nH]c3ccccc23)NC(=O)[C@H](C(C)C)NC1=O [Compound 65, K(1c)(6c)^†IVWQE(6c)[Y(2-aminoethoxy)][2-Nal][2-Me-Leu][beta-hGlu](1c)-[NH-2-(pyridin-3-yl)ethyl]] (KIVWQE[AEF][2Nal][αMeL][β3hE]-{NH(2-(3-pyridyl)ethyl)}; lactam 1-10, N-6)
13 | 9.9 | 97 | – | CC(C)[C@@H]1NC(=O)[C@H]([C@@H](C)O)NC(=O)[C@@H]2CCCCNC(=O)CC[C@@H]3NC(=O)[C@H](CCCCNC(=O)[C@H](Cc4cccnc4)NC(=O)[C@H](CCN)NC3=O)NC(=O)[C@H](Cc3ccc4ccccc4c3)NC(=O)[C@H](Cc3ccc(OCCN)cc3)NC(=O)[C@H](CCC(=O)N2)NC(=O)[C@H](CCC(N)=O)NC(=O)[C@H](Cc2c[nH]c3ccccc23)NC1=O [Compound 77, K(1c)(6c)^†TVWQE(6c)[Y(2-aminoethoxy)][2-Nal]K(7c)E(1c)[Dab][3-(3-Pyridyl)-Ala](7c)^‡]
14 | 3.7 | 92 | – | CC(C)[C@@H]1NC(=O)[C@H]([C@@H](C)O)NC(=O)[C@@H]2CCCCNC(=O)CC[C@@H]3NC(=O)[C@H](CCNC(=O)[C@H](Cc4cccnc4)NC(=O)[C@H](CCN)NC3=O)NC(=O)[C@H](Cc3ccc4ccccc4c3)NC(=O)[C@H](Cc3ccc(OCCN)cc3)NC(=O)[C@H](CCC(=O)N2)NC(=O)[C@H](CCC(N)=O)NC(=O)[C@H](Cc2c[nH]c3ccccc23)NC1=O [Compound 76, K(1c)(6c)^†TVWQE(6c)[Y(2-aminoethoxy)][2-Nal][Dab](7c)E(1c)[Dab][3-(3-Pyridyl)-Ala](7c)^‡] (KTVWQE[AEF][2Nal][Dab]E[Dab][3Pal]; lactam 1-10, 9-C, N-6)

From patent EP4471048A1, “PEPTIDE INHIBITORS OF INTERLEUKIN-23 RECEPTOR” (Zealand Pharma A/S, priority 2023, dated 2024)
